Results from US8278320B2, “Azabicyclo[2.2.1]heptane compounds as alpha-7 nicotinic acetylcholine receptor ligands” (Bristol-Myers Squibb Company, priority 2009, dated 2012).
Read-outs that look alike come from different tables or passages of the source.

Assays:
[1] = target: T1, α-7 nicotinic ACh receptor ion channel expressed in mammalian HEK 293 cells (Rattus norvegicus, UniProt Q05941); experiment: Ca2+-sensitive, fluorescence-based FLIPR assay for α-7 nicotinic acetylcholine receptor channel function (agonist activity); assay type: cell-based
Description: I) α7 Nicotinic Acetycholine Receptor Binding. Membranes were prepared for binding using HEK293 cells stably expressing the rat α7 nicotinic acetycholine receptor (rat α7 nAChR). Cells were homogenized at 4° C. in hypotonic lysis buffer consisting of 10 mM Tris (pH 7.4), 5 mM EDTA and protease inhibitors and centrifuged at 32000×g for 20 minutes. The pellet was washed once in membrane wash buffer consisting of 50 mM Tris (pH 7.4), 1 mM EDTA and protease inhibitors and centrifuged at 32000×g for 20 minutes. This pellet was then resuspended in assay buffer consisting 50 mM KH2PO4 (pH 7.4 at 25° C.), 1 mM EDTA, 0.005% Triton-X 100 and 0.1% (v/v) Sigma Protease Inhibitor Cocktail. Aliquots were then frozen in dry ice/ethanol and kept at −80° C. until the day of the assay. II) A Ca^2+-Sensitive, Fluorescence-Based Assay α-7 for Nicotinic Acetylcholine Receptor Channel Function In Mammalian Cells (“FLIPR”). Summary: Lead compounds are evaluated for agonist activity at α-7, α3β4, α4αβ2, and α1β1δ1ε sub-types of nicotinic ACh receptor ion channels expressed in mammalian HEK 293 cells. Agonist potency and efficacy values are determined from kinetic fluorescence Ca^2+ influx measurements made using a 384 well FLIPR (Fluorescence Image Plate Reader). […] The basal fluorescence from the cells is monitored in real time, followed by the acute addition of test compounds. […]
Target sequence in this assay (Q05941 23-502 limits assumed): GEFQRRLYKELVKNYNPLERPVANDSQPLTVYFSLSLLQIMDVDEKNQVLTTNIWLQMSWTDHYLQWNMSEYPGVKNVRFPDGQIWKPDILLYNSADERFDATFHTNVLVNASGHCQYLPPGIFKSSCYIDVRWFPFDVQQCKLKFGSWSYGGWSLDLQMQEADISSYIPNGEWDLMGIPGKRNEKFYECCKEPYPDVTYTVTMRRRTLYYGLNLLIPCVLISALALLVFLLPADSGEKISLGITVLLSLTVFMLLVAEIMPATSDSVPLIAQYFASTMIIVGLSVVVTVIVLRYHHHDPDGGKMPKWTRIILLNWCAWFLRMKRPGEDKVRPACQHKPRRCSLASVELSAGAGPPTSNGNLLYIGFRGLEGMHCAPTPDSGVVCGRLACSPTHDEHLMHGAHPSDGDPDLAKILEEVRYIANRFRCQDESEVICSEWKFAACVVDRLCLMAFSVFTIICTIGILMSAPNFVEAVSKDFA

[2] = target: T1, α-7 nicotinic ACh receptor ion channel expressed in mammalian HEK 293 cells; experiment: as above; assay type: cell-based; set-up: expressed in transfected cells; conditions: Ca2+ flux, HEK-293 cells, Fluo-4
Description: I) α7 Nicotinic Acetycholine Receptor Binding. Membranes were prepared for binding using HEK293 cells stably expressing the rat α7 nicotinic acetycholine receptor (rat α7 nAChR). Cells were homogenized at 4° C. in hypotonic lysis buffer consisting of 10 mM Tris (pH 7.4), 5 mM EDTA and protease inhibitors and centrifuged at 32000×g for 20 minutes. The pellet was washed once in membrane wash buffer consisting of 50 mM Tris (pH 7.4), 1 mM EDTA and protease inhibitors and centrifuged at 32000×g for 20 minutes. This pellet was then resuspended in assay buffer consisting 50 mM KH2PO4 (pH 7.4 at 25° C.), 1 mM EDTA, 0.005% Triton-X 100 and 0.1% (v/v) Sigma Protease Inhibitor Cocktail. Aliquots were then frozen in dry ice/ethanol and kept at −80° C. until the day of the assay. II) A Ca^2+-Sensitive, Fluorescence-Based Assay α-7 for Nicotinic Acetylcholine Receptor Channel Function In Mammalian Cells (“FLIPR”). Summary: Lead compounds are evaluated for agonist activity at α-7, α3β4, α4αβ2, and α1β1δ1ε sub-types of nicotinic ACh receptor ion channels expressed in mammalian HEK 293 cells. Agonist potency and efficacy values are determined from kinetic fluorescence Ca^2+ influx measurements made using a 384 well FLIPR (Fluorescence Image Plate Reader). […] In this assay, channel expressing HEK cell lines seeded in 384 well assay plates are loaded with a membrane permeant fluorescent Ca^2+ indicator dye, whose 510 nm green emission signal increases in response to elevation of intracellular Ca^2+ concentration. The basal fluorescence from the cells is monitored in real time, followed by the acute addition of test compounds.
Materials and Methods: Reagents: The acetomethoxy (AM) ester of the Ca^2+ indicator dye Fluo-4 was obtained from InVitrogen, (Carlsbad, Calif.). Acetylcholine and all buffer constituents were purchased from Sigma Chemical Company, St. Louis, Mo. G418 and Minimal Essential Medium were purchased from InVitrogen Life Technologies, Carlsbad, Calif. Fetal bovine serum was purchased from (InVitrogen, Carlsbad, Calif.).
Cell Culture: HEK-293 cells were grown in Minimal Essential Medium containing 10% (v/v) fetal bovine serum at 37° C. in a 5% CO2 incubator. HEK-293 cells stably expressing the ion channels were grown in the same medium with the addition of 500 μg/ml G418.
Ca^2+ flux assays of Ca^2+ channels expressed in HEK-293 cells: HEK-293 cells expressing the ion channels of interest were plated in 384 well, black-walled, clear-bottomed, poly-D-lysine coated plates at a density of ˜20,000 cells/well in 20 μl of Minimal Essential Medium containing 10% (v/v) fetal bovine serum and incubated for 2 days at 29° C. in a 5% CO2 incubator. Prior to assay, cells were loaded with the Fluo-4 AM ester. […] Dye loading was allowed to proceed for 90 minutes at room temperature at which time the dye loading solution was removed and replaced with 40 μl/well of Hanks buffer. Cells loaded with dye were loaded onto a FLIPR384 (Molecular Devices, Sunnyvale, Calif.). Fluo-4 dye was excited using the 488 nm line of an argon laser. Emission was filtered using a 540+/−30 nm bandpass filter. For evaluation of the effects of test compounds using the Ca^2+ flux assay, compounds to be tested were provided in assay ready plates. For nicotinic receptor ion channel expressing cells, the assay was initiated by the addition of 20 μl/well of Hanks buffer containing test compounds. For all assays, data were collected at 1 Hz for 10 seconds (baseline), at which time the compound containing stimulus buffers are added, and further measurements collected at 0.33 Hz for 3 min.
Data Analysis: The statistical robustness of the nicotinic receptor Ca^2+ flux assays is determined from blanks and totals wells. […] The raw fluorescence units data files generated on the FLIPR plate reader are automatically exported and processed by in-house data analysis tools.
Target sequence in this assay (Q05941 23-502): as the sequence (Q05941 23-502 limits assumed) above

[3] = FLIPR α7-HI (EC50, nM), agonist potency
[4] = FLIPR α7 activity rating (EC50, nM), agonist potency class
[5] = agonist potency class, read-out: FLIPR α7 activity rating (EC50)

| SMILES | EC50 [2, 4] [nM] | EC50 [2, 5] [nM] | other results |
| --- | --- | --- | --- |
| c1ccc2sc(NC3=NC[C@@]4(CN5CC[C@@H]4C5)O3)nc2c1 |  |  | EC50 [1]: < 0.1 µM |
| c1cnc2sc(NC3=NCC4(CN5CCC4C5)O3)nc2c1 (single isomer, unassigned) [Example 17b] | < 100 |  | EC50 [2, 3]: 35 nM |
| Cc1ccc2nc(NC3=NC[C@@]4(C[N@@]5CC[C@@H]4C5)O3)oc2c1 [Example 29, (3R,4R)—N-(6-Methylbenzo[d]oxazol-2-yl)-4′H-1-azaspiro[bicyclo[2.2.1]heptane-3,5′-oxazol]-2′-amine] |  | < 100 |  |
| c1ccc2cc(NC3=NCC4(CN5CCC4C5)O3)ncc2c1 (single isomer, unassigned) [Example 16a] | 1000 to 100000 |  |  |
| COc1ccc2nc(NC3=NC[C@@]4(C[N@]5CC[C@H]4C5)O3)sc2c1 (relative stereo) [Example 1, (3R*,4S*)—N-(6-Methoxybenzo[d]thiazol-2-yl)-4′H-1-azaspiro[bicyclo[2.2.1]heptane-3,5′-oxazol]-2′-amine] |  | 1000 to 100000 | EC50 ([2]; agonist potency, read-out: FLIPR α7-HI (EC50)): 411 nM |
| Clc1cnc(NC2=NC[C@@]3(C[N@@]4CC[C@@H]3C4)O2)c(Cl)c1 (relative stereo) [Example 6, (3R*,4R*)—N-(3,5-Dichloropyridin-2-yl)-4′H-1-azaspiro[bicyclo[2.2.1]heptane-3,5′-oxazol]-2′-amine] | 100 to 1000 |  | EC50 [2, 3]: 155 nM |
| c1cnc2sc(NC3=NCC4(CN5CCC4C5)O3)nc2c1 (single isomer, unassigned) [Example 17a] | 1000 to 100000 |  |  |
| c1ccc2cc(NC3=NCC4(CN5CCC4C5)O3)ncc2c1 (single isomer, unassigned) [Example 7a] | < 100 |  |  |
| COc1ccc2nc(NC3=NC[C@@]4(C[N@@]5CC[C@@H]4C5)O3)sc2c1 (relative stereo) [Example 2, (3R*,4R*)—N-(6-Methoxybenzo[d]thiazol-2-yl)-4′H-1-azaspiro[bicyclo[2.2.1]heptane-3,5′-oxazol]-2′-amine] |  | 1000 to 100000 |  |
